Series [1] has as its system HIV-1Bal (subtype B, R5). Conditions: read-out: IC50, inhibition of infection by HIV-1Bal; M7 cells, 100 TCID50, p24 ELISA day 7; triplicate, repeated twice. An excerpt:
(§1) Then, the culture supernatants were changed to fresh media. On the fourth day post-infection, culture supernatants were collected for detection of p24 antigen by ELISA. […] Then, the culture supernatants were changed to fresh media. On the fourth day post-infection, the culture supernatants were discarded and fresh media were complemented again. The supernatants were collected on the seventh day post-infection and tested for p24 antigen by ELISA as previously described. The percent inhibition of p24 production was calculated.
(An ELISA detects its analyte on a solid surface through an enzyme-linked reagent.)

Series [2] concerns HIV-1IIIB (subtype B, X4). Conditions: read-out: IC50, inhibition of infection by HIV-1IIIB; MT-2 cells, 100 TCID50, p24 ELISA day 4; triplicate, repeated twice.
Description: as §1

The test system of series [3] is 92UG024 (D). The class given is cell-based. Conditions: primary HIV-1 isolate, subtype D; read-out: IC50 (nM), infection by primary isolate 92UG024 (D).
For series [4], the system named is NP1525 (A/E). It is filed as cell-based. Conditions: primary HIV-1 isolate, subtype A/E; read-out: IC50 (nM), infection by primary isolate NP1525 (A/E).
Series [5] concerns 93BR020 (F). The class given is cell-based. Conditions: primary HIV-1 isolate, subtype F; read-out: IC50 (nM), infection by primary isolate 93BR020 (F).
Series [6] relates to T20-resistant HIV-1 variant V38A. It is filed as cell-based.
Series [7] relates to T20-resistant HIV-1 variant V38A/N42D. It is filed as cell-based.
The subject of series [8] is T20-resistant HIV-1 variant N42T/N43K. It is filed as cell-based.
The test system of series [9] is T20-resistant HIV-1 variant V38E/N42S. It is filed as cell-based.
Series [10] concerns T20-resistant HIV-1 variant V38A/N42T. It is filed as cell-based.
In series [11] the test system is HIV-1IIIB (subtype B, X4). As to the kind of experiment: Inhibition of HIV-1 IIIB infection by peptides in the presence of sera from HIV-1-infected patients. The class given is cell-based. The settings on record: for IC50: MT-2 cells, triplicate, mean ± SD. The protocol:
Inhibition of peptides on HIV-1IIIB (subtype B, X4)infection in the presence of HIV-1-infected patients’ sera was determined as previously described. Briefly, each peptide was mixed with serially diluted serum from an HIV-1-infected patient at room temperature for 30 min. Next, the mixture of peptide/serum and HIV-1 (100 TCID50) were added to MT-2 cells (1 × 10^5/ml) in RPMI 1640 medium containing 10% FBS. After incubation at 37 °C overnight, the culture supernatants were replaced with fresh culture medium.

Series [12] concerns 92UG029 (A). Conditions: read-out: IC50 (nM), infection by primary isolate 92UG029 (A); primary HIV-1 isolate, subtype A.
Series [13] has as its system 94US_33931N (B). Conditions: read-out: IC50 (nM), infection by primary isolate 94US_33931N (B); primary HIV-1 isolate, subtype B.
In series [14] the test system is 93IN101 (C). The settings on record: read-out: IC50 (nM), infection by primary isolate 93IN101 (C); primary HIV-1 isolate, subtype C.
For series [15], the system named is 92TH009 (A/E). The settings on record: read-out: IC50 (nM), infection by primary isolate 92TH009 (A/E); primary HIV-1 isolate, subtype A/E.
The subject of series [16] is BCF020 (Group O). The settings on record: read-out: IC50 (nM), infection by primary isolate BCF020 (Group O), primary HIV-1 isolate.
Series [17] concerns preexisting antibodies in sera from HIV-1-infected patients. The series can be described thus: Sandwich ELISA: cross-reactivity of peptides with preexisting antibodies in HIV-1-infected patients. It is filed as binding, human. The settings on record: peptide coated at 10 μg/ml, serially diluted sera, 37 °C 1 h, A450. The protocol:
A sandwich ELISA was conducted to determine the cross-reactivity of the peptides with the preexisting antibodies in HIV-1-infected patients. […] The wells were then blocked with 1% gelatin, followed by addition of 50 μl of serially diluted sera from HIV-1-infected patients and incubation at 37 °C for 1 h. Then, HRP-labeled goat-anti-human IgG (Abcam, UK) and TMB were added sequentially. A450 was determined with an ELISA reader (Ultra 384, Tecan).

Series [18] deals with T1, N36 (gp41 NHR peptide) (Human immunodeficiency virus type 1 group M subtype B, UniProt P04578).
T1 construct: gp41 NHR (“N36”, 546-581); made in house; host or cells: chemical solid-phase FMOC synthesis
T1 sequence (P04578 546-581): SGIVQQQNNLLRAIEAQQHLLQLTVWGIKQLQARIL
As to the kind of experiment: CD spectroscopy and thermal midpoint analysis of peptide/N36 complexes. It is filed as physicochemical, HIV-1. The protocol:
Briefly, each peptide or peptide mixture was dissolved in phosphate-buffered saline (PBS: 50 mM sodium phosphate and 150 mM NaCl, pH 7.2) at the final concentration of 10 μM and incubated at 37 °C for 30 min before cooling down to 4 °C. The CD spectra of each sample were acquired on a Jasco spectropolarimeter (Model J-815, Jasco Inc., Japan) at 4 °C using a 5 nm bandwidth, 0.1 nm resolution, 0.1 cm path length and an average time of 5.0 sec. Spectra were corrected by the subtraction of a blank corresponding to the solvent composition of each sample. Thermal midpoint analysis was used to determine the temperature at which 50% of the 6-HB formed by the CHR and NHR would decompose. It was monitored at 222 nm from 4 °C to 98 °C by applying a thermal gradient of 5 °C/min. The melting curve was smoothed and the midpoint of the thermal unfolding transition (Tm) values was calculated using Jasco software utilities as described above.

The target in series [19] is T2, gp41 6-HB formation between N36 and C34 (Human immunodeficiency virus type 1 group M subtype B, UniProt P04578).
T2 construct: gp41 NHR (“N36”, 546-581); made in house; host or cells: chemical solid-phase FMOC synthesis
T2 sequence (P04578 546-581): as above
As to the kind of experiment: biochemical. The class given is biochemical, HIV-1. The settings on record: read-out: IC50, inhibition of 6-HB formation between C34 and N36; N36 1 μM preincubated with peptide 37 °C 30 min, then C34 1 μM; ELISA with mAb NC-1; triplicate. The protocol: Inhibition of gp41 six-helix bundle formation by a testing peptide was determined with a sandwich ELISA described previously. […] A450 was determined by an ELISA reader (Ultra 384, Tecan).

Setting [20] is: in presence of serum of HIV-1-infected patient HPS-1, read-out: IC50 (nM), HIV-1 IIIB infection, HPS-1.
Setting [21] is: in presence of serum of HIV-1-infected patient HPS-2, read-out: IC50 (nM), HIV-1 IIIB infection, HPS-2.
Setting [22] is: in presence of serum of HIV-1-infected patient HPS-3, read-out: IC50 (nM), HIV-1 IIIB infection, HPS-3.
Setting [23] is: in presence of serum of HIV-1-infected patient HPS-4, read-out: IC50 (nM), HIV-1 IIIB infection, HPS-4.
Setting [24] is: in presence of serum of HIV-1-infected patient HPS-5, read-out: IC50 (nM), HIV-1 IIIB infection, HPS-5.

Where two headings read alike, the source gives them in different places. Where a SMILES comes first, the peptide text is derived from it.

For Enfuvirtide, the IC50 was 30.2 nM in [1]; 13.6 nM in series [2]; 15.5 ± 3.5 nM in series [3]; 29.7 ± 6.9 nM in series [4]; 24.5 ± 3.6 nM in [5]; 943 ± 46.4 nM in series [6]. Also, the IC50 in [7] is above 2000 nM; in [8], above 2000 nM; in [9] it was above 2000 nM; in series [10] it was above 5000 nM; in series [11] (setting [20]), 128 ± 20.5 nM; in series [11] (setting [21]) it was 134 ± 44.9 nM. The IC50 in [11] (setting [22]) is 157 ± 22 nM; in series [11] (setting [23]) it was above 200 nM; in series [11] (setting [24]) it was above 200 nM; in [12] it was 8.6 ± 1.7 nM; in series [13], 16.2 ± 2.8 nM; in series [14] it was 16.8 ± 6.5 nM. Besides, the IC50 was 14.2 ± 12.4 nM in [15] and 30.8 ± 0.5 nM in series [16].

For `CC[C@H](C)[C@H](NC(=O)[C@H](CO)NC(=O)[C@H](CCC(=O)O)NC(=O)[C@H](CCC(=O)O)NC(=O)[C@H](CCC(N)=O)NC(=O)[C@H](CCCCN)NC(=O)[C@H](CCCCN)NC(=O)[C@@H](NC(=O)[C@H](CCC(N)=O)NC(=O)[C@H](CCC(=O)O)NC(=O)[C@H](CCC(=O)O)NC(=O)[C@@H](NC(=O)[C@H](CCCCN)NC(=O)[C@H](CCCCN)NC(=O)[C@@H](NC(=O)[C@H](CC(C)C)NC(=O)[C@H](CCC(=O)O)NC(=O)[C@H](CCC(=O)O)NC(=O)[C@H](CO)NC(=O)[C@H](CCCCN)NC(=O)[C@H](CCCCN)NC(=O)[C@@H](NC(=O)[C@H](CC(C)C)NC(=O)[C@H](CCC(=O)O)NC(=O)[C@H](CCC(=O)O)NC(=O)[C@@H](NC(=O)[C@H](CCC(=O)O)NC(=O)[C@H](CCCNC(=N)N)NC(=O)[C@H](CC(=O)O)NC(=O)[C@H](Cc1c[nH]c2ccccc12)NC(=O)[C@H](CCC(=O)O)NC(=O)[C@H](CCSC)NC(=O)[C@H](Cc1c[nH]c2ccccc12)NC(C)=O)[C@@H](C)CC)[C@@H](C)CC)[C@@H](C)CC)[C@@H](C)CC)[C@@H](C)CC)C(=O)N[C@@H](CCCCN)C(=O)N[C@@H](CCCCN)C(N)=O` [AP1] (Ac-WMEWDREIEELIKKSEELIKKIEEQIKKQEESIKK-NH2), the IC50 came to 396 nM in series [1]; 86.2 nM in series [2]; 87.4 ± 54.8 nM in series [11] (setting [20]); 70.1 ± 44.9 nM in [11] (setting [21]); 165 ± 26.6 nM in series [11] (setting [22]); 89.5 ± 20.6 nM in [11] (setting [23]). The IC50 in series [11] (setting [24]) amounted to 68.5 ± 22.6 nM. Further, the “Fold change of IC50, HPS-1” value in [11] (HPS-1 relative to N) is on record as 0.8. The “Fold change of IC50, HPS-2” value in series [11] (HPS-2 relative to N) came to 0.6. For the same molecule, the “Fold change of IC50, HPS-3” value in series [11] (HPS-3 relative to N) is given as 1.5. In [11] (HPS-4 relative to N), the “Fold change of IC50, HPS-4” value is reported as 0.8. Further, in series [11] (HPS-5 relative to N), the “Fold change of IC50, HPS-5” value is 0.6. Further, the “reactivity with antibodies in sera from five HIV-1-infected patients” value in series [17] is “none of the three artificial peptides AP1, AP2 and AP3 was recognized”. In addition, in series [18] (CD thermal denaturation at 222 nm, 4 to 98 °C, 5 °C/min, 10 μM in PBS pH 7.2), the “Tm of complex with N36” value is reported as 59.6 ^oC. Moreover, the “α-helix content of complex with N36” value in series [18] (CD, peptide/N36 mixture 10 μM in PBS pH 7.2, 4 °C) worked out at 65.36%.

Turning to `COc1ccc(S(=O)(=O)O)cc1N=Nc1c(S(=O)(=O)O)cc2cc(Nc3nc(Nc4ccccc4)nc(Nc4cc(C)c(N=Nc5cc(S(=O)(=O)O)cc6cc(S(=O)(=O)O)cc(O)c56)cc4OC)n3)ccc2c1O` [ADS-J1, reference compound], in series [19], the IC50 was found to be 2750 nM.
